Values after ≈ are worked out from the molar mass of the structure shown. Where two headings read alike, the source gives them in different places. Each block holds one molecule with its values, some of them ahead of it.
Key:
Format in all cases: physicochemical
[1] = Evaluation of other salt forms as active pharmaceutical ingredient; conditions: reasons including instability, hygroscopicity and deliquescence even at moderate humidity
Protocol: The advantageous nature of the physicochemical properties of the di-hydrochloride salt of MN-029 seems to be borne out, not just in comparison with the mono-hydrochloride salt but also with three other salts that were prepared to determine each salt's potential to be an active pharmaceutical ingredient. These other salt forms were the mesylate, malonate and sulfate salts of denibulin. Each was deemed unsuitable for use in pharmaceutical formulations because of one or more reasons, including instability, hygroscopicity and deliquescence even at moderate humidity.

[2] = Aqueous solubility, 24 hours equilibration in water at 25° C., HPLC, pH and XRPD of residue; conditions: for XRPD of solid residue: residue after 24 hours equilibration in water at 25° C.
Protocol: Briefly, quantitative high performance liquid chromatography (HPLC) was used to determine the aqueous solubility. X-ray powder diffraction spectrometry was also used to characterize the thermodynamic solubility of the mono-hydrochloride and di-hydrochloride salts of MN-029. After a 24 hours equilibration of each salt form in water at 25° C., the residual solid material was separated from the aqueous solution and the pH of the aqueous sample was measured. The XRPD spectrum of the solid residue obtained from the MN-029 di-hydrochloride vial indicated the solid material to be the mono-hydrochloride salt of MN-029. […] Table 4 illustrates the data from aqueous solubility studies of the mono-hydrochloride and di-hydrochloride salts of MN-029.
The suspension was equilibrated at 25° C. for 24 hours then pH was measured. The suspension was filtered and the filtrate was diluted by a factor of 101. Quantization by HPLC with a reference to a standard solution. Different volumes of the standard, diluted, and undiluted solution were injected and solubility was calculated by integration of the peak found at the same time as the principle peak in the standard solution.

[3] = Gravimetric Vapor Sorption (GVS) hygroscopicity; conditions: for Weight change: GVS
Source text: Moreover, neither the mono-hydrochloride salt or the di-hydrochloride salt of MN-029 show any significant change in phase as measured by XRPD analysis of samples subjected to GVS analysis (see FIG. 6).

[4] = Log P, Log Pion, Log D by potentiometric titration (Sirius GlpKa, octanol:water); conditions: octanol:ionic-strength adjusted water
Source text: Most drugs have an ideal log P value and any deviation from this idealized value results in reduced absorption, slow transport of drug to the site of action and consequently, a decrease in biological activity. Table 8, illustrates the predicted and measured values for partition coefficients of MN-029 di-hydrochloride. The data was collected by potentiometric titration using a Sirius GlpKa instrument using three ratios of octanol:ionic-strength adjusted water to generate Log P, Log Pion and Log D values and the raw data was analyzed using Refinement Pro Software V.1.0. The predicted value of Log P was obtained using ACD V. software and Syracuse KOWWIN V.1.67 softwares.

[5] = pKa, predicted (ACD) versus measured (Sirius GlpKa)
Source text: MN-029 has a primary, secondary and tertiary amino group. The pKa's of these amino groups, therefore, should play a role in aqueous solubility, stability and pharmacokinetics. Accordingly, the present inventor compared the predicted pKa's of the alanyl and ring nitrogen atoms to their measured pKa values and unexpectedly found a significant difference between the measured and predicted pKa values for the benzimidazole nitrogen atoms. Thus, for the acidic >N—H group of imidazole, there is approximately a 6-fold difference between the predicted and measured pKa values as shown in Scheme 3. For the more basic ring nitrogen (—N═), however, the difference between observe red and predicted pKa values is 30-fold. That is, the measured value of basicity for the unprotonated ring nitrogen is much lower than the predicted value.
Predicted pKa values were calculated using ACD pKa prediction software v. 9. Actual pKa values were collected on a Sirius GlpKa instrument with a D-PAS attachment. Measurements were made at 25° C. in aqueous solution by UV and in methanol water mixtures by potentiometry. The ionic-strength of the titration media was adjusted with 0.15 M aqueous KCl. The values found in methanol water mixtures were corrected to 0% co-solvent via a Yashuda-Shedlovsky extrapolation. The data were refined using Refinement Pro software v. 1.0. No difference in pKa between the tautomers of MN-029 di-hydrochloride were detected experimentally or theoretically.

[6] = Solubility as a function of pH in buffers without and with 15% HPBCD; conditions: for solubility at 5 days: thermodynamic from solid, read-out: MN-029 Solubility
Protocol: Buffers were prepared to cover a pH range of 2 to 7. Approximately 5 to 10 milligrams of drug was weighed into an HPLC vial to which 1.00 mL of the appropriate buffer was added. The solutions were vortexed briefly and were then shaken for five days on an orbital shaker. The prolonged shaking was carried out because slow equilibration had been observed during the initial formulation studies with different salt forms of MN-029.
Buffers with 15% HPBCD were prepared from the previous buffers. One and a half grams of HPBCD was weighed into each of several 10 mL volumetric flasks. HPBCD was dissolved in and diluted to volume with the appropriate buffer. 15 to 20 milligrams of MN-029 di-hydrochloride was weighed out into an tared HPLC vial. To the di-hydrochloride salt was added 1.00 mL of each buffer and the solution was vortexed briefly to dissolve the salt. The solutions were placed on an orbital shaker for five days. Solubility results are shown in Table 10, and the pH solubility profile for the drug in the absence of HPBCD is shown in FIG. 8.

[7] = water, 25° C., equilibration for 24 hours

- suitability for use in pharmaceutical formulations [1]: unsuitable
Molecule: malonate

- suitability for use in pharmaceutical formulations [1]: unsuitable
Molecule: O=S(=O)(O)O [sulfate]

- XRPD of solid residue ([2]; listed as A063866): No significant difference
- XRPD of solid residue ([2]; listed as MN-029*HCl): No significant
- Concentration of filtrate [2, 7]: 0.63 mg/ml of free base
- pH of saturated solution [2, 7]: 2.37
- Weight change ([3]; 0% RH to 40% RH): +1.04 % w/w
- Weight change ([3]; 40% RH to 90% RH, listed as A063866): Reversible uptake of +2.12% w/w
- Weight change ([3]; 40% RH to 90% RH, listed as MN029*HCl): +2.12 % w/w
- Weight change ([3]; 90% RH to 0% RH): −3.39 % w/w
- XRPD of residue after GVS ([3]; sample subjected to GVS): No significant difference
- Measured LogP [4]: 2.64
- Measured LogPion(cation) [4]: 0.93
- Measured LogD7.4 ([4]; pH 7.4): 2.10
Molecule: COC(=O)Nc1nc2cc(Sc3ccc(NC(=O)[C@H](C)N)cc3)ccc2[nH]1.Cl [MN-029 mono-hydrochloride, reference compound]

- difference between predicted and measured pKa values ([5]; acidic >N—H group of imidazole): ~6 fold
- difference between predicted and measured pKa values ([5]; alanyl amino group): no significant difference
- difference between observed and predicted pKa values ([5]; more basic ring nitrogen (—N═)): 30 fold
- MN-029 Solubility ([6]; Without HPBCD, buffer pH 2.0, final pH 2.10, five days shaking): 6160 µg/mL
- solubility at 5 days ([6]; aqueous buffer with 15% HPBCD, pH 2, aqueous with cosolvent or surfactant or cyclodextrin, With 15% HPBCD, buffer pH 2.0, final pH 2.03): > 20900 µg/mL
- solubility at 5 days ([6]; aqueous buffer with 15% HPBCD, pH 3, aqueous with cosolvent or surfactant or cyclodextrin, With 15% HPBCD, buffer pH 3.0, final pH 3.11): > 24400 µg/mL
- solubility at 5 days ([6]; aqueous buffer with 15% HPBCD, pH 4, aqueous with cosolvent or surfactant or cyclodextrin, With 15% HPBCD, buffer pH 4.0, final pH 3.98): > 21500 µg/mL
- solubility at 5 days ([6]; aqueous buffer with 15% HPBCD, pH 5, aqueous with cosolvent or surfactant or cyclodextrin, With 15% HPBCD, buffer pH 5.0, final pH 5.24): > 23000 µg/mL
- solubility at 5 days ([6]; aqueous buffer with 15% HPBCD, pH 6, aqueous with cosolvent or surfactant or cyclodextrin, With 15% HPBCD, buffer pH 6.0, final pH 6.27): > 24300 µg/mL
- solubility at 5 days ([6]; aqueous buffer with 15% HPBCD, pH 7, aqueous with cosolvent or surfactant or cyclodextrin, With 15% HPBCD, buffer pH 7.0, final pH 6.90): > 22700 µg/mL
- solubility at 5 days ([6]; aqueous buffer, pH 3, aqueous buffer, Without HPBCD, buffer pH 3.0, final pH 3.35): 290 µg/mL (≈ 752 µM)
- solubility at 5 days ([6]; aqueous buffer, pH 4, aqueous buffer, Without HPBCD, buffer pH 4.0, final pH 3.92): 560 µg/mL (≈ 1450 µM)
- solubility at 5 days ([6]; aqueous buffer, pH 5, aqueous buffer, Without HPBCD, buffer pH 5.0, final pH 4.93): 150 µg/mL (≈ 389 µM)
- solubility at 5 days ([6]; aqueous buffer, pH 6, aqueous buffer, Without HPBCD, buffer pH 6.0, final pH 6.24): 130 µg/mL (≈ 337 µM)
- solubility at 5 days ([6]; aqueous buffer, pH 7, aqueous buffer, Without HPBCD, buffer pH 7.0, final pH 6.96): 26 µg/mL (≈ 67.5 µM)
Molecule: COC(=O)Nc1nc2ccc(Sc3ccc(NC(=O)[C@H](C)N)cc3)cc2[nH]1 [MN-029, carbamic acid N-[6-[[4-[[(2S)-2-amino-1-oxopropyl]amino]phenyl]thio]-1H-benzimidazol-2-yl]-methyl ester]

Reference: US8633324B2, “Denibulin di-hydrochloride” (Medicinova, Inc., priority 2011, dated 2014)
